{
  "source": "patent US10053437B2",
  "about": "“Salt of dicarboxylic acid compound” (Daiichi Sankyo Company, Limited, priority 2014, dated 2018)",
  "key": {"[1]": {"system": "intestinal phosphate absorption", "assay": "Rat 33P phosphate oral challenge test (intestinal phosphate absorption suppression test)", "assay_type": "in vivo", "details": "male SD rats, 30 mg/kg forced oral administration, serum radioactivity AUC0-60 min vs control group", "description": "(Test Example) Rat ^33P Phosphate Oral Challenge Test (Intestinal Phosphate Absorption Suppression Test)\nUsing male SD rats (5-7 weeks old) that had been fasted on the previous day, the compound described in the Examples was suspended or dissolved in a solvent such as 0.5% methyl cellulose (3-6 mg/mL), and the thus obtained solution was administered to each rat at a dose of 30 mg/kg by forced oral administration. On the other hand, regarding a control group, the solvent was administered to each rat at a dose of 5 mL/kg. Thirty minutes after administration, a […] phosphate solution (8.3 mM NaH2PO4, 0.35 MBq/mL) was administered to the rats at a dose of 7.2 mL/kg by forced oral administration. Then, 15, 30, 60, and 120 minutes after administration, blood was collected from the jugular vein of each rat under anesthesia with isoflurane. The radioactivity in […] was measured using a liquid scintillation counter, and the AUC0-60 min was then calculated from the radioactivity value. The obtained value was defined as an amount of phosphate absorbed. The phosphate absorption-inhibiting activity of the compound was calculated according to the following expression. Phosphate absorption-inhibiting activity (%)=[…]"}, "[2]": {"assay": "Measurement of solubility (shaking at 37° C., UHPLC)", "assay_type": "physicochemical", "details": "for solubility at 24 h / solubility at 30 min: thermodynamic from solid; for Solubility Mc pH 6.0: diluted McIlvaine buffer pH 6.0, shaking at 37° C. for 30 minutes; for Solubility diluted McIlvaine buffer pH 6.0: diluted McIlvaine buffer pH 6.0, shaking at 37° C. for 24 hours", "description": "With regard to the measurement of solubility, solubility was calculated by the following operations.\nApproximately 5 mg of a sample was weighed into a test tube, and then 5 mL each solution (see below) that had previously been set at 37° C. was added to the test tube.\nUsing Thermomixer Comfort (a shaker) manufactured by Eppendorf, the test tube was intensively shaken at 37° C. for 30 seconds at 750 rpm, and was then left at rest for 4 minutes 30 seconds. This shaking and resting operation was repeated 5 times (30 minutes in total).\nThe solutions obtained 30 minutes and 24 hours after initiation of the shaking were promptly filtered through a membrane filter (pore diameter: 0.45 μm), and the obtained filtrates were each diluted with a sample solution to an appropriate concentration. The concentration of a compound in the filtrate was measured by UHPLC, and solubility was then calculated.\nThe following solutions were used. • JP1: 2.0 g of sodium chloride was dissolved in 7.0 mL of hydrochloric acid and water to prepare 1000 mL of a solution (pH: about 1.2). • JP2: 118 mL of a 0.2 mol/L sodium hydroxide test solution and water were added to 250 mL of a 0.2 mol/L potassium dihydrogen phosphate test solution to prepare 1000 mL of a solution (pH: about 6.8). • Water: Ultrapure water (for use in LC/MS) manufactured by Wako Pure Chemical Industries, Ltd. was used. • Mc pH 6.0: A diluted McIlvaine buffer (pH 6.0) manufactured by Kanto Chemical Co., Inc. was used. • Mc pH 7.5: A diluted McIlvaine buffer (pH 7.5) manufactured by Kanto Chemical Co., Inc. was used.\nConditions for HPLC are as follows.\nApparatus: UHPLC H-Class manufactured by Waters\nMobile phase: A: 0.01 mol/L aqueous potassium phosphate solution (pH 4.0); B: acetonitrile\nColumn: Acquity UPLC BEH C18, 2.1 mm ID×75 mm, particle diameter: 1.7 μm (Waters)\nColumn temperature: 40° C.\nDetection wavelength: 220 nm"}, "[3]": {"details": "JP2 (pH about 6.8), shaking at 37° C. for 30 minutes"}, "[4]": {"details": "JP2 (pH about 6.8), shaking at 37° C. for 24 hours"}, "[5]": {"details": "shaking at 37° C. for 30 minutes"}},
  "note": "Counter-ions that a name gives are not always drawn. Like-named read-outs stand apart in the source and are kept apart here.",
  "data": [
    {"smiles": "CCN([C@H]1CC[C@H](C(=O)O)CC1)S(=O)(=O)c1cccc(C(=O)Nc2ccc(N3CCCCC3)cc2C(=O)Nc2ccc(CCc3ccc(C(=O)O)cc3)cc2)c1", "note": "[Example 6, potassium sodium 4-[2-(4-{[2-({3-[(trans-4-carboxycyclohexyl)(ethyl)sulfamoyl]benzoyl}amino)-5-(piperidin-1-yl)benzoyl]amino}phenyl)ethyl]benzoate hydrate]", "values": [
      {"measurement": "Phosphorus absorption-inhibiting activity (%)", "setting": "[1]; hydrate, 30 mg/kg", "value": 59, "unit": "%"},
      {"measurement": "Solubility JP2", "setting": "[2]; JP2 (pH about 6.8), shaking at 37° C. for 30 minutes, hydrate", "value": 22.5, "unit": "µg/mL"},
      {"measurement": "Solubility JP2", "setting": "[2]; JP2 (pH about 6.8), shaking at 37° C. for 24 hours, hydrate", "value": 968.5, "unit": "µg/mL"},
      {"measurement": "Solubility water", "setting": "[2]; shaking at 37° C. for 30 minutes, hydrate", "value": 2.2, "unit": "µg/mL"},
      {"measurement": "Solubility water", "setting": "[2]; shaking at 37° C. for 24 hours, hydrate", "value": 940.7, "unit": "µg/mL"}
    ]},
    {"smiles": "CCN([C@H]1CC[C@H](C(=O)O)CC1)S(=O)(=O)c1cccc(C(=O)Nc2ccc(N3CCCCC3)cc2C(=O)Nc2ccc(CCc3ccc(C(=O)O)cc3)cc2)c1", "note": "[Example 8, monopiperazine salt of 4-[2-(4-{[2-({3-[(trans-4-carboxycyclohexyl)(ethyl)sulfamoyl]benzoyl}amino)-5-(piperidin-1-yl)benzoyl]amino}phenyl)ethyl]benzoic acid]", "values": [
      {"measurement": "solubility at 24 h", "setting": "[2]; JP1 solution (sodium chloride/hydrochloric acid in water), 37 °C, pH 1.2, simulated gastric fluid, JP1 (pH about 1.2), shaking at 37° C. for 24 hours, read-out: Solubility JP1", "value": 1.4, "unit": "µg/mL"},
      {"measurement": "Solubility JP2", "setting": "[2]; [3]", "value": 105.7, "unit": "µg/mL"},
      {"measurement": "Solubility JP2", "setting": "[2]; [4]", "value": 137.8, "unit": "µg/mL"},
      {"measurement": "Solubility Mc pH 6.0", "setting": "[2]", "value": 3.3, "unit": "μg/mL"},
      {"measurement": "Solubility diluted McIlvaine buffer pH 6.0", "setting": "[2]", "value": 0.2, "unit": "μg/mL"},
      {"measurement": "Solubility water", "setting": "[2]; [5]", "value": 31.7, "unit": "µg/mL"},
      {"measurement": "Solubility water", "setting": "[2]; shaking at 37° C. for 24 hours", "value": 429.5, "unit": "µg/mL"}
    ]},
    {"smiles": "CCN([C@H]1CC[C@H](C(=O)O)CC1)S(=O)(=O)c1cccc(C(=O)Nc2ccc(N3CCCCC3)cc2C(=O)Nc2ccc(CCc3ccc(C(=O)O)cc3)cc2)c1", "note": "[Example 7, mono-p-toluenesulfonate of 4-[2-(4-{[2-({3-[(trans-4-carboxycyclohexyl)(ethyl)sulfamoyl]benzoyl}amino)-5-(piperidin-1-yl)benzoyl]amino}phenyl)ethyl]benzoic acid]", "values": [
      {"measurement": "Solubility JP1", "setting": "[2]; JP1 (pH about 1.2), shaking at 37° C. for 30 minutes", "value": 0.7, "unit": "µg/mL"},
      {"measurement": "solubility at 24 h", "setting": "[2]; JP1 solution (sodium chloride/hydrochloric acid in water), 37 °C, pH 1.2, simulated gastric fluid, JP1 (pH about 1.2), shaking at 37° C. for 24 hours, unit printed as μL, read-out: Solubility JP1", "value": 0.1, "unit": "µg/mL"},
      {"measurement": "Solubility JP2", "setting": "[2]; [3]", "value": 61.7, "unit": "µg/mL"},
      {"measurement": "Solubility JP2", "setting": "[2]; [4]", "value": 87.5, "unit": "µg/mL"},
      {"measurement": "Solubility diluted McIlvaine buffer pH 6.0", "setting": "[2]", "value": 1058.4, "unit": "μg/mL"},
      {"measurement": "solubility at 30 min", "setting": "[2]; diluted McIlvaine buffer pH 7.5, 37 °C, pH 7.5, aqueous buffer, diluted McIlvaine buffer pH 7.5, shaking at 37° C. for 30 minutes, read-out: Solubility Mc pH 7.5", "value": 639, "unit": "µg/mL"},
      {"measurement": "Solubility water", "setting": "[2]; [5]", "value": 0.2, "unit": "µg/mL"},
      {"measurement": "Solubility water", "setting": "[2]; shaking at 37° C. for 24 hours", "value": 0.2, "unit": "µg/mL"}
    ]},
    {"smiles": "CCN([C@H]1CC[C@H](C(=O)O)CC1)S(=O)(=O)c1cccc(C(=O)Nc2ccc(N3CCCCC3)cc2C(=O)Nc2ccc(CCc3ccc(C(=O)O)cc3)cc2)c1", "note": "[Example 1, Disodium 4-[2-(4-{[2-({3-[(trans-4-carboxycyclohexyl) (ethyl)sulfamoyl]benzoyl}amino)-5-(piperidin-1-yl)benzoyl]amino}phenyl)ethyl]benzoate trihydrate]", "values": [
      {"measurement": "Phosphorus absorption-inhibiting activity (%)", "setting": "[1]", "value": 72, "unit": "%"},
      {"measurement": "solubility at 24 h", "setting": "[2]; 37 °C, pH 6.8, aqueous buffer, JP2 (pH about 6.8), shaking at 37° C. for 24 hours, unit inferred, read-out: Solubility JP2", "value": 10.7, "unit": "µg/mL"},
      {"measurement": "solubility at 30 min", "setting": "[2]; JP1 solution (sodium chloride/hydrochloric acid in water), 37 °C, pH 1.2, simulated gastric fluid, JP1 (pH about 1.2), shaking at 37° C. for 30 minutes, read-out: Solubility JP1", "value": 1, "unit": "µg/mL"},
      {"measurement": "solubility at 24 h", "setting": "[2]; JP1 solution (sodium chloride/hydrochloric acid in water), 37 °C, pH 1.2, simulated gastric fluid, JP1 (pH about 1.2), shaking at 37° C. for 24 hours, unit inferred, read-out: Solubility JP1", "value": 1.3, "unit": "µg/mL"},
      {"measurement": "Solubility JP2", "setting": "[2]; JP2 (pH about 6.8), shaking at 37° C. for 30 minutes, trihydrate", "value": 40.3, "unit": "µg/mL"},
      {"measurement": "Solubility Mc pH 6.0", "setting": "[2]; trihydrate", "value": 1.1, "unit": "μg/mL"},
      {"measurement": "Solubility diluted McIlvaine buffer pH 6.0", "setting": "[2]; trihydrate", "value": 0.1, "unit": "μg/mL"},
      {"measurement": "Solubility water", "setting": "[2]; shaking at 37° C. for 30 minutes, trihydrate", "value": 949.4, "unit": "µg/mL"},
      {"measurement": "Solubility water", "setting": "[2]; shaking at 37° C. for 24 hours, trihydrate", "value": 960.1, "unit": "µg/mL"}
    ]}
  ]
}
